Measured values: PMC12430278, “A Simple and Reliable Method for the Determination of Isorhapontigenin in Murine Biological Matrices: Application in a Tissue Distribution Study” (Molecules, 2025)

Experiments:
[1] = cited from earlier work
[2] = Stability of stock solutions; format: physicochemical; settings: DMSO stock solution, stock solution 1.00 mg/mL, n = 6, read-out: Remaining (%, Mean ± SD)
Method: Stock solutions of ISO and trans-stilbene (internal standard, IS) were prepared in DMSO at a final concentration of 1 mg/mL. These solutions were stored at −20 °C and protected from light. The calibration standard and quality control (QC) samples were prepared by serial dilution of the ISO stock solution with pooled blank murine plasma or respective tissue homogenate.
The stability of ISO was evaluated under various storage conditions. Stock solution stability was assessed after storage at room temperature (25 °C) and –20 °C. The stability of ISO in plasma was examined under the following conditions: short-term storage (25 °C for 24 h), long-term storage (–80 °C for 52 days), three freeze–thaw cycles, and post-preparative stability (samples kept in an autosampler at 4 °C for more than 24 h). As it is difficult to evaluate ISO stability directly in tissues, only the short-term stability in tissue homogenates was assessed (6 h on ice). Similarly, post-preparative stability in processed tissue samples was assessed using liver homogenate as a representative, due to the complexity of the hepatic matrix. Stability was considered acceptable if 85–115% of the initial ISO concentration remained.

SMILES: COc1cc(/C=C/c2cc(O)cc(O)c2)ccc1O [ISO, trans-3,5,4′-trihydroxy-3′-methoxystilbene]
- Change in oral bioavailability after one-week repeated dosing ([1]; one-week repeated dosing): did not result in any significant changes
- Absolute oral bioavailability ([1]; rats, oral): 20–30%
- Time of peak plasma concentrations post-dosing ([1]; rats, oral): ≤ 15 min
- remaining at 24 h, 1 mg/mL ([2]; stored at room temperature for 24 h): 94.6 ± 0.7%
- remaining at 480 h, 1 mg/mL ([2]; stored at −20 °C for 20 days): 105 ± 1.4%
